# In paper PMC9481151, “Discovery of new symmetrical and asymmetrical nitrile-containing 1,4-dihydropyridine derivatives as dual kinases and P-glycoprotein inhibitors: synthesis, in vitro assays, and in silico studies” (Journal of Enzyme Inhibition and Medicinal Chemistry, 2022):
# Tests used:
# [1] = system: NCI-H460; assay: NCI single dose (10 µM) SRB screen; type: cell-based, human; conditions: non-small cell lung cancer, 48 h
# [2] = system: SW-620; assay: NCI single dose (10 µM) SRB screen; type: cell-based, human; conditions: colon cancer, 48 h
# [3] = system: HOP-62; assay: NCI single dose (10 µM) SRB screen; type: cell-based, human; conditions: non-small cell lung cancer, 48 h
# [4] = system: Pseudomonas aeruginosa; assay: Agar well diffusion method; conditions: relative to ciprofloxacin
# [5] = system: OVCAR-3; assay: NCI single dose (10 µM) SRB screen; type: cell-based, human; conditions: ovarian cancer, 48 h
# [6] = system: HL-60(TB); assay: NCI single dose (10 µM) SRB screen; type: cell-based, human; conditions: leukaemia, 48 h
# [7] = system: SK-OV-3; assay: NCI single dose (10 µM) SRB screen; type: cell-based, human; conditions: ovarian cancer, 48 h
# [8] = system: Bacillus subtilis; assay: Agar well diffusion method; conditions: relative to ciprofloxacin
# [9] = system: PC-3; assay: NCI single dose (10 µM) SRB screen; type: cell-based, human; conditions: prostate cancer, 48 h
# [10] = system: NCI-H322M; assay: NCI single dose (10 µM) SRB screen; type: cell-based; conditions: non-small cell lung cancer, 48 h
# [11] = system: SNB-19; assay: NCI single dose (10 µM) SRB screen; type: cell-based, human; conditions: CNS cancer, 48 h
# [12] = system: M14; assay: NCI single dose (10 µM) SRB screen; type: cell-based, human; conditions: melanoma, 48 h
# [13] = system: NCI/ADR-RES; assay: NCI single dose (10 µM) SRB screen; type: cell-based, human; conditions: ovarian cancer, 48 h
# [14] = system: HCT-15; assay: NCI single dose (10 µM) SRB screen; type: cell-based, human; conditions: colon cancer, 48 h
# [15] = system: SK-MEL-28; assay: NCI single dose (10 µM) SRB screen; type: cell-based, human; conditions: melanoma, 48 h
# [16] = system: UO-31; assay: NCI single dose (10 µM) SRB screen; type: cell-based, human; conditions: renal cancer, 48 h
# [17] = system: NCI 60 cancer cell lines; assay: NCI single dose (10 µM) SRB screen, mean over panel; type: cell-based, human; conditions: mean over 60 cell lines, 48 h
# [18] = system: MOLT-4; assay: NCI single dose (10 µM) SRB screen; type: cell-based, human; conditions: leukaemia, 48 h
# [19] = system: HCC-2998; assay: NCI single dose (10 µM) SRB screen; type: cell-based, human; conditions: colon cancer, 48 h
# [20] = system: A498; assay: NCI single dose (10 µM) SRB screen; type: cell-based, human; conditions: renal cancer, 48 h
# [21] = system: HCT-116; assay: NCI single dose (10 µM) SRB screen; type: cell-based, human; conditions: colon cancer, 48 h
# [22] = system: DU-145; assay: NCI single dose (10 µM) SRB screen; type: cell-based, human; conditions: prostate cancer, 48 h
# [23] = system: MALME-3M; assay: NCI single dose (10 µM) SRB screen; type: cell-based, human; conditions: melanoma, 48 h
# [24] = system: NCI-H522; assay: NCI single dose (10 µM) SRB screen; type: cell-based, human; conditions: non-small cell lung cancer, 48 h
# [25] = system: UACC-62; assay: NCI single dose (10 µM) SRB screen; type: cell-based, human; conditions: melanoma, 48 h
# [26] = system: OVCAR-8; assay: NCI single dose (10 µM) SRB screen; type: cell-based, human; conditions: ovarian cancer, 48 h
# [27] = system: OVCAR-4; assay: NCI single dose (10 µM) SRB screen; type: cell-based, human; conditions: ovarian cancer, 48 h
# [28] = system: NCI-H23; assay: NCI single dose (10 µM) SRB screen; type: cell-based, human; conditions: non-small cell lung cancer, 48 h
# [29] = system: EKVX; assay: NCI single dose (10 µM) SRB screen; type: cell-based, human; conditions: non-small cell lung cancer, 48 h
# [30] = system: UACC-257; assay: NCI single dose (10 µM) SRB screen; type: cell-based, human; conditions: melanoma, 48 h
# [31] = system: SR; assay: NCI single dose (10 µM) SRB screen; type: cell-based, human; conditions: leukaemia, 48 h
# [32] = system: A549/ATCC; assay: NCI single dose (10 µM) SRB screen; type: cell-based, human; conditions: non-small cell lung cancer, 48 h
# [33] = system: BT-549; assay: NCI single dose (10 µM) SRB screen; type: cell-based, human; conditions: breast cancer, 48 h
# [34] = system: MDA-MB-435; assay: NCI single dose (10 µM) SRB screen; type: cell-based, human; conditions: melanoma, 48 h
# [35] = system: CCRF-CEM; assay: NCI single dose (10 µM) SRB screen; type: cell-based, human; conditions: leukaemia, 48 h
# [36] = system: U251; assay: NCI single dose (10 µM) SRB screen; type: cell-based, human; conditions: CNS cancer, 48 h
# [37] = system: MDA-MB-231; assay: NCI single dose (10 µM) SRB screen; type: cell-based, human; conditions: breast cancer, 48 h
# [38] = system: MCF7; assay: NCI single dose (10 µM) SRB screen; type: cell-based, human; conditions: breast cancer, 48 h
# [39] = system: MDA-MB-468; assay: NCI single dose (10 µM) SRB screen; type: cell-based, human; conditions: breast cancer, 48 h
# [40] = system: SN12C; assay: NCI single dose (10 µM) SRB screen; type: cell-based, human; conditions: renal cancer, 48 h
# [41] = system: RXF 393; assay: NCI single dose (10 µM) SRB screen; type: cell-based, human; conditions: renal cancer, 48 h
# [42] = system: Staphylococcus aureus; assay: Agar well diffusion method; conditions: relative to ciprofloxacin
# [43] = system: SNB-75; assay: NCI single dose (10 µM) SRB screen; type: cell-based, human; conditions: CNS cancer, 48 h
# [44] = system: COLO 205; assay: NCI single dose (10 µM) SRB screen; type: cell-based, human; conditions: colon cancer, 48 h
# [45] = system: T-47D; assay: NCI single dose (10 µM) SRB screen; type: cell-based, human; conditions: breast cancer, 48 h
# [46] = system: K-562; assay: NCI single dose (10 µM) SRB screen; type: cell-based, human; conditions: leukaemia, 48 h
# [47] = system: RPMI-8226; assay: NCI single dose (10 µM) SRB screen; type: cell-based, human; conditions: leukaemia, 48 h
# [48] = system: HOP-92; assay: NCI single dose (10 µM) SRB screen; type: cell-based, human; conditions: non-small cell lung cancer, 48 h
# [49] = system: LOX IMVI; assay: NCI single dose (10 µM) SRB screen; type: cell-based, human; conditions: melanoma, 48 h
# [50] = system: SF-295; assay: NCI single dose (10 µM) SRB screen; type: cell-based, human; conditions: CNS cancer, 48 h
# [51] = system: SF-268; assay: NCI single dose (10 µM) SRB screen; type: cell-based, human; conditions: CNS cancer, 48 h
# [52] = system: SF-539; assay: NCI single dose (10 µM) SRB screen; type: cell-based, human; conditions: CNS cancer, 48 h
# [53] = system: 786-0; assay: NCI single dose (10 µM) SRB screen; type: cell-based, human; conditions: renal cancer, 48 h
compound,measurement,setting,value
"CCOC(=O)C1=C(C)NC(C)=C(C(=O)OCc2ccccc2)C1c1cccc(C#N)c1 (racemic) [Compound 2l, (±)-3- Benzyl 5-ethyl 4-(3-cyanophenyl)-2,6-dimethyl-1,4-dihydropyridine-3,5-dicarboxylate]",GI% NCI-H460,[1],77%
same,GI% SW-620,[2],70%
same,GI% HOP-62,[3],54%
same,"% activity index, P. aeruginosa",[4],– (Values below 25 are of limited value and not shown as they refer either to inactive or non-diffusing compounds)
same,GI% OVCAR-3,[5],76%
same,GI% HL-60(TB),[6],83%
same,GI% SK-OV-3,[7],24%
same,"% activity index, B. subtilis",[8],– (Values below 25 are of limited value and not shown as they refer either to inactive or non-diffusing compounds)
same,GI% PC-3,[9],66%
same,GI% NCI-H322M,[10],30%
same,GI% SNB-19,[11],58%
same,GI% M14,[12],85%
same,GI% NCI/ADR-RES,[13],77%
same,GI% HCT-15,[14],77%
same,GI% SK-MEL-28,[15],48%
same,GI% UO-31,[16],56%
same,Mean GI%,[17],64%
same,GI% MOLT-4,[18],68%
same,GI% HCC-2998,[19],29%
same,GI% A498,[20],104%
same,GI% HCT-116,[21],86%
same,GI% DU-145,[22],42%
same,GI% MALME-3M,[23],62%
same,GI% NCI-H522,[24],90%
same,GI% UACC-62,[25],66%
same,GI% OVCAR-8,[26],51%
same,GI% OVCAR-4,[27],28%
same,GI% NCI-H23,[28],37%
same,GI% EKVX,[29],62%
same,GI% UACC-257,[30],44%
same,GI% SR,[31],78%
same,GI% A549/ATCC,[32],65%
same,GI% BT-549,[33],68%
same,GI% MDA-MB-435,[34],110%
same,GI% CCRF-CEM,[35],74%
same,GI% U251,[36],58%
same,GI% MDA-MB-231,[37],47%
same,GI% MCF7,[38],78%
same,GI% MDA-MB-468,[39],84%
same,GI% SN12C,[40],63%
same,GI% RXF 393,[41],55%
same,"% activity index, S. aureus",[42],– (Values below 25 are of limited value and not shown as they refer either to inactive or non-diffusing compounds)
same,GI% SNB-75,[43],104%
same,GI% COLO 205,[44],65%
same,GI% T-47D,[45],72%
same,GI% K-562,[46],83%
same,GI% RPMI-8226,[47],67%
same,GI% HOP-92,[48],49%
same,GI% LOX IMVI,[49],64%
same,GI% SF-295,[50],84%
same,GI% SF-268,[51],42%
same,GI% SF-539,[52],76%
same,GI% 786-0,[53],63%
